In patent publication EP0351214A1, “Anti-inflammatory aryl derivatives” (THE WELLCOME FOUNDATION LIMITED, priority 1988, dated 1990):

What was measured:
cyclo-oxygenase (CO) = target: T1, cyclo-oxygenase (CO) (Homo sapiens, UniProt P23219); experiment: In vitro inhibition of cyclo-oxygenase (CO) in homogenised leukocytes, radioimmunoassay for thromboxane B2; type: biochemical; conditions: homogenised leukocytes from blood of normal aspirin-free volunteers; 5µM arachidonic acid, 37°C, 5 minutes; thromboxane B₂ by radioimmunoassay; read-out: IC₅₀(µM) activity CO
T1 construct: The leukocytes were homogenised and 5µM arachidonic acid added; from tissue; host or cells: homogenised leukocytes from blood of volunteers
Protocol: (§1) In vitro inhibition of 5-lipoxygenase (5-LO) and cyclo-oxygenase (CO)
(§2) Blood from normal aspirin-free volunteers was centrifuged to separate leukocytes from red cells and platelets. The leukocytes were homogenised and 5µM arachidonic acid added, followed by incubation at 37 °C for 5 minutes. The reaction was stopped by boiling and radioimmunoassays conducted for leucotriene B₄ and thromboxane B₂, products derived from 5-lipoxygenase and cyclo-oxygenase respectively. Results were calculated as IC₅₀(µM) activity against each enzyme.

5-lipoxygenase (5-LO) = target: T2, 5-lipoxygenase (5-LO) (Homo sapiens, UniProt P09917); experiment: In vitro inhibition of 5-lipoxygenase (5-LO) in homogenised leukocytes, radioimmunoassay for leucotriene B4; type: biochemical; conditions: homogenised leukocytes from blood of normal aspirin-free volunteers; 5µM arachidonic acid, 37°C, 5 minutes; leucotriene B₄ by radioimmunoassay; read-out: IC₅₀(µM) activity LO
T2 construct: The leukocytes were homogenised and 5µM arachidonic acid added; from tissue; host or cells: homogenised leukocytes from blood of volunteers
T2 sequence (P09917 1-674): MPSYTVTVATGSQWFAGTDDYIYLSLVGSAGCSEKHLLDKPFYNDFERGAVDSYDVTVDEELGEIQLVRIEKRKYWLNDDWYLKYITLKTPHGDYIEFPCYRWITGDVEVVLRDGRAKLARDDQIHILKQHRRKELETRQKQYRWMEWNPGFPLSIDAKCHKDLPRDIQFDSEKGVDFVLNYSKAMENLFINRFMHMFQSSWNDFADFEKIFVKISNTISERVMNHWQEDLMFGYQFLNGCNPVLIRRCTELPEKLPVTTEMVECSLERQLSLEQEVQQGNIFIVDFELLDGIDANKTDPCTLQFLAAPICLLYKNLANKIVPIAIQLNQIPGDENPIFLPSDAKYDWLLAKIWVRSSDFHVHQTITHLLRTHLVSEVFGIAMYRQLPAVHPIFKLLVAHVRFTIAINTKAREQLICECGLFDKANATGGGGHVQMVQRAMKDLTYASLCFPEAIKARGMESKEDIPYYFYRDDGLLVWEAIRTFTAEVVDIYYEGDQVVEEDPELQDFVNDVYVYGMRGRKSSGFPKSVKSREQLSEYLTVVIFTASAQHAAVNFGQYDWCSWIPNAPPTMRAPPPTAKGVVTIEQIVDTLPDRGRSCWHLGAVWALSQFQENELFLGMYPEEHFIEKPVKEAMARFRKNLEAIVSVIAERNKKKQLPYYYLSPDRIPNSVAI
Protocol: as §1, §2

T1 sequence (P23219 24-599): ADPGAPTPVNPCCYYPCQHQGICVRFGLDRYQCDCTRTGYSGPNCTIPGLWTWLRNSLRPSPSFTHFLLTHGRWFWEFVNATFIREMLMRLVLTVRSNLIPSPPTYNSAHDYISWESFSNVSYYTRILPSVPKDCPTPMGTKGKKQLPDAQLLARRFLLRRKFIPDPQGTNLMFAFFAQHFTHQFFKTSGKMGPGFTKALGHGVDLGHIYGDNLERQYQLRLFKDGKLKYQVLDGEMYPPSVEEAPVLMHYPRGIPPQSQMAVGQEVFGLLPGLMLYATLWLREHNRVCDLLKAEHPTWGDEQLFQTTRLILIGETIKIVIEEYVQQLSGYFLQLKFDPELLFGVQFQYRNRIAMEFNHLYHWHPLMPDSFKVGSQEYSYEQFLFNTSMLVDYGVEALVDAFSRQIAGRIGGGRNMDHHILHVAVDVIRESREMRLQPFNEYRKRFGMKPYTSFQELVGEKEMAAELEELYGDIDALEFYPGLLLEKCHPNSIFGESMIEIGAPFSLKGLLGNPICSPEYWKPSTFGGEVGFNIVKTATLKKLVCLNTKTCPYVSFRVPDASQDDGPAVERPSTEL

- IC50 (cyclo-oxygenase (CO)): 3 µM
- IC50 (5-lipoxygenase (5-LO)): 0.15 µM
Compound: CC(=O)N(O)[C@@H](C)/C=C/c1cccc(Oc2ccc(F)cc2)c1 [Synthetic Example, (E)-N-{1(S)-methyl-3-[3-(4-fluorophenoxy)phenyl]prop-2-en-1-yl}acetohydroxamic acid]
